Assay results as given in patent US11865124B2, “Vitamin c and doxycycline: a synthetic lethal combination therapy for eradicating cancer stem cells (CSCS)” (priority 2017, dated 2024).
Where two headings read alike, the source gives them in different places. Blank lines part the entries; values can stand above or below the compound they belong to.

Key:
[1] = system: MCF7-DoxyR cells; test: Mammosphere formation assay (CSC propagation) in doxycycline-resistant MCF7 cells; format: cell-based
From the text: To test this hypothesis, the inventors generated a cancer cell sub-population metabolically synchronized toward a glycolytic phenotype by chronically treating MCF7 cells with the FDA-approved antibiotic doxycycline, a mitochondrial inhibitor. Briefly, MCF7 cells were obtained from ATCC and cultured in DMEM (Sigma Aldrich). MCF7 cells resistant to doxycycline (MCF7-DoxyR cells) were selected by a stepwise exposure to increasing concentrations of doxycycline. […] It should be appreciated that other cancer cell lines and other mitochondrial (oxidation) inhibitors may be used.
To more directly assess functional CSC activity, mammosphere formation assays may be used. Briefly, a single cell suspension of MCF7 or MCF7 DoxyR cells may be prepared using enzymatic (1× Trypsin-EDTA, Sigma Aldrich), and manual disaggregation (25-gauge needle). Cells may be plated at a density of 500 cells/cm2 in mammosphere medium (DMEM-F12/B27/20-ng/ml EGF/PenStrep) in nonadherent conditions, in culture dishes coated with (2-hydroxyethylmethacrylate) (poly-HEMA, Sigma), in the presence of Atovaquone (FIG. 6A) or Chloroquine (FIG. 6B). Cells may be grown for 5 days and maintained in a humidified incubator at 37° C. at an atmospheric pressure in 5% (v/v) carbon dioxide/air. After 5 days for culture, spheres larger than 50 μm may be counted using an eye piece graticule, and the percentage of cells plated which formed spheres may be calculated. Mammosphere assays may be performed in triplicate and repeated three times independently.
The present approach further involves methods of testing the efficacy of glycolysis inhibitors on CSC propagation using other clinically-approved drugs that functionally behave as OXPHOS inhibitors (Irinotecan, Sorafenib, Niclosamide) or glycolysis inhibitors (Stiripentol) on mammosphere formation. Briefly, MCF7 DoxyR cells were cultured in low attachment plates and treated with Vehicle or increasing concentrations of the lactate dehydrogenase (LDH) inhibitor Stiripentol (2 μM to 100 μM) (FIG. 11A) or the OXPHOS inhibitors Irinotecan (500 nM to 80 μM) (FIG. 11B), Sorafenib (500 nM to 40 μM) (FIG. 11C), Berberine Chloride (500 nM to 10 μM) (FIG. 11D) and Niclosamide (FIG. 11E-F) for 5 days before counting. Independent experiments were performed in triplicate.

[2] = system: MCF7 CSCs; conditions: control MCF7 CSCs; Bonuccelli et al, Oncotarget 2017; read-out: IC-50, MCF7 CSC propagation; cited from earlier work
[3] = system: MCF7-DoxyR cells; test: Proliferation assay by EdU incorporation (flow cytometry); format: cell-based; conditions: MCF7-DoxyR cells (chronic doxycycline) vs MCF7 cells
From the text: To test this hypothesis, the inventors generated a cancer cell sub-population metabolically synchronized toward a glycolytic phenotype by chronically treating MCF7 cells with the FDA-approved antibiotic doxycycline, a mitochondrial inhibitor. Briefly, MCF7 cells were obtained from ATCC and cultured in DMEM (Sigma Aldrich). MCF7 cells resistant to doxycycline (MCF7-DoxyR cells) were selected by a stepwise exposure to increasing concentrations of doxycycline. Specifically, MCF7 cells were initially exposed to 12.5 μM doxycycline, followed by 3 weeks of treatment with 25 μM doxycycline, followed by 3 weeks of treatment with 50 μM doxycycline. […]
To determine functional effects on doxycycline on CSC propagation, proliferation may be measured by determining relative levels of EdU incorporation (EdU refers to the alkyne-containing thymidine analog (5-ethynyl-2′-deoxyuridine) which is incorporated into DNA during active DNA synthesis). […] EdU was detected after permeabilization by staining cells with Click-iT Plus reaction cocktail containing the Fluorescent dye picolylazide for 30 min at room temperature. Samples were then washed and analyzed using flow cytometer. […] Data were analyzed using FlowJo software. FIGS. 7A-B show MCF7-DoxyR cells have a reduced ability to proliferate by more than 60%, as measured using EdU-incorporation.

[4] = system: MCF7-DoxyR cells; test: Cell migration, wound healing scratch assay; format: cell-based; conditions: MCF7-DoxyR cells (chronic doxycycline) vs MCF7 cells, 24 h
From the text: To test this hypothesis, the inventors generated a cancer cell sub-population metabolically synchronized toward a glycolytic phenotype by chronically treating MCF7 cells with the FDA-approved antibiotic doxycycline, a mitochondrial inhibitor. Briefly, MCF7 cells were obtained from ATCC and cultured in DMEM (Sigma Aldrich). MCF7 cells resistant to doxycycline (MCF7-DoxyR cells) were selected by a stepwise exposure to increasing concentrations of doxycycline. Specifically, MCF7 cells were initially exposed to 12.5 μM doxycycline, followed by 3 weeks of treatment with 25 μM doxycycline, followed by 3 weeks of treatment with 50 μM doxycycline. The doxycycline-resistant MCF7 cells were then routinely maintained in regular medium supplemented with 25 μM Doxycycline. It should be appreciated that other cancer cell lines and other mitochondrial (oxidation) inhibitors may be used.
The present approach further involves methods of analyzing the effects of chronic treatment on functionality by considering cell migration. […] The migration assay was evaluated using Incucyte Zoom (Essen Bioscience). The rate of migration was measured by quantifying the % of wound closure area, determined using the software ImageJ, according to the formula: % of wound closure=[(At=0 h−At=Δ h)/At=0 h]×100%. […] Statistical significance was measured using the t-test. […]

[5] = Homo sapiens, 120 h, mammosphere formation, MCF7 DoxyR cells, 5 days, read-out: IC-50, DoxyR CSC propagation
[6] = Homo sapiens, MCF7, 120 h, read-out: inhibition of CSC propagation of MCF7-DoxyR cells
[7] = Homo sapiens, mammosphere formation, MCF7 DoxyR cells, read-out: IC-50, DoxyR CSC propagation

SMILES: CNC(=O)c1cc(Oc2ccc(NC(=O)Nc3ccc(Cl)c(C(F)(F)F)c3)cc2)ccn1 [Sorafenib]
IC50 ([1]; Homo sapiens, MCF7, read-out: IC-50, DoxyR CSC propagation): 0.5 to 1 µM

SMILES: O=CC[C@@H](O)[C@H](O)[C@H](O)CO [2-DG, 2-deoxy-glucose]
inhibition at 10000 µM ([1]; Homo sapiens, MCF7, 10 mM 2-DG, read-out: inhibition of propagation of DoxyR CSCs): > 90% | inhibition at 20000 µM ([1]; Homo sapiens, MCF7, 20 mM 2-DG, read-out: inhibition of propagation of DoxyR CSCs): 100%

SMILES: CCN(CC)CCCC(C)Nc1ccnc2cc(Cl)ccc12 (centres unmarked) [Chloroquine]
inhibition at 25 µM [1, 6]: > 75% | inhibition at 50 µM [1, 6]: > 90%

SMILES: O=C1C(O)=C([C@H]2CC[C@H](c3ccc(Cl)cc3)CC2)C(=O)c2ccccc21 [Atovaquone]
inhibition at 1 µM ([1]; Homo sapiens, MCF7, 120 h, 1 μM Atovaquone, mammospheres, 5 days): > 85%

SMILES: C[C@H]1c2cccc(O)c2C(=O)C2=C(O)[C@]3(O)C(=O)C(C(N)=O)=C(O)[C@@H](N(C)C)[C@@H]3[C@@H](O)[C@@H]21 [doxycycline]
reduction in ability to proliferate (EdU-incorporation) [3]: more than 60% | reduction in cell migration (scratch assay) [4]: greater than 50%

Further lines, with some results ahead:

IC50 [1, 5]: ~0.1 µM
SMILES: O=C(Nc1ccc([N+](=O)[O-])cc1Cl)c1cc(Cl)ccc1O [Niclosamide]

IC50 [1, 5]: ~0.5 µM
SMILES: CCc1c2c(nc3ccc(OC(=O)N4CCC(N5CCCCC5)CC4)cc13)-c1cc3c(c(=O)n1C2)COC(=O)[C@]3(O)CC [Irinotecan]

IC50 [1, 7]: ~1 µM
SMILES: COc1ccc2cc3[n+](cc2c1OC)CCc1cc2c(cc1-3)OCO2 [Berberine, Berberine Chloride]

IC50 [1, 7]: 100 to 250 µM
SMILES: O=C1O[C@H]([C@@H](O)CO)C(O)=C1O [Vitamin C, ascorbic acid]
inhibition at 250 µM ([1]; Homo sapiens, MCF7, 250 μM Vitamin C): > 90% | inhibition at 500 µM ([1]; Homo sapiens, MCF7, 500 μM Vitamin C): 100% | fold more sensitive, DoxyR CSCs vs control MCF7 CSCs ([1]; ratio of IC-50 in MCF7 CSCs to DoxyR CSCs, identical assay conditions): 4-10 fold | IC50 [2]: 1000 µM

IC50 [1, 7]: 10 to 50 µM
SMILES: CC(C)(C)C(O)/C=C/c1ccc2c(c1)OCO2 (centres unmarked) [Stiripentol]
